Laboratory results published in patent publication US20250325663A1, “MEDICAMENT FOR TREATMENT AND/OR PREVENTION OF CANCER” (TORAY INDUSTRIES, INC., priority 2021, published 2025).

System: colon cancer cell line HCT116
Test: Proliferation rate of HCT116 in culture with drug
Format: cell-based, human
Details: cultured for 2 days
Protocol: The human-derived cancer cells used were a colon cancer cell line HCT116, a melanoma cell line A375 (used only in the tunicamycin combination test group), a lung cancer cell line A549 (used only in the tunicamycin combination test group), and a prostate cancer cell line DU145 (used only in the tunicamycin combination test group). On a 6-well plate, the human-derived cancer cells were cultured for 1 day in the presence of tunicamycin for the tunicamycin combination test group, and cultured for 2 days in the presence of the relevant drug used in combination for the fluorouracil combination test group and the irinotecan combination test group. The concentration of the drug used in combination was set to a concentration that decreased the proliferation rate of the cancer cells by about half at the completion of culture. […] As a control, a test group without a drug used in combination was established. In the control group, only DMSO (dimethyl sulfoxide), a solvent for the drug used in combination, was added to the cancer cells at a final concentration of 0.1% (v/v), and then the cancer cells were cultured for 2 days.

O=c1[nH]cc(F)c(=O)[nH]1 [fluorouracil]
concentration that decreased the proliferation rate of the cancer cells by about half at the completion of culture: 0.4 µg/mL
